Experimental data: patent publication US10759826B2, “15β-substituted estrone derivatives as selective inhibitors of 17β-hydroxysteroid-dehydrogenases, method of preparation and use thereof” (USTAV ORGANICKE CHEMIE A BIOCHEMIE AV CR, V.V.I., priority 2016, dated 2020)

Assays:
[1] = biological target: T1, estrogen receptor α (ERα) (Homo sapiens, UniProt P03372); test: ERα luciferase reporter assay in U2OS cells; assay type: cell-based; conditions: for Emax: U2OS, read-out: efficacy of ERα activation, % of the maximal effect produced by E2; for EC50: agonist mode, U2OS reporter, 24 h; for IC50: antagonist mode, 1 nmol·l^−1 E2
T1 construct: expressed in transfected cells
T1 sequence (P03372 1-595): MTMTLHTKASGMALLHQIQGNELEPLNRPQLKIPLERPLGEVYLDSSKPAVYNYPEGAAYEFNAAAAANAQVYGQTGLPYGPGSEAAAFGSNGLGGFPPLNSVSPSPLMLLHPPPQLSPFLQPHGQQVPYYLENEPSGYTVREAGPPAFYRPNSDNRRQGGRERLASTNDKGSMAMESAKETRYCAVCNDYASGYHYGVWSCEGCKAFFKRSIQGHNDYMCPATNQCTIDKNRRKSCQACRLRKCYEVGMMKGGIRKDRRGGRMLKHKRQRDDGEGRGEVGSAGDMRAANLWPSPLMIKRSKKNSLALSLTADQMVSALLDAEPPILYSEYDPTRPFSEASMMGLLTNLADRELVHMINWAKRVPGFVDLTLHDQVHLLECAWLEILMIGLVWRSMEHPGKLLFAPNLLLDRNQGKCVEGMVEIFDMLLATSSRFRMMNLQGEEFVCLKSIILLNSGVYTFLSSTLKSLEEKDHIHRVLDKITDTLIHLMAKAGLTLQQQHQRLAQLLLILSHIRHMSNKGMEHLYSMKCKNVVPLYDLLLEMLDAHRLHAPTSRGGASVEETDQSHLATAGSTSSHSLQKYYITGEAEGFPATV

androgen receptor (AR) = biological target: T2, androgen receptor (AR) (Homo sapiens, UniProt P10275); test: AR luciferase reporter assay in U2OS cells; assay type: cell-based; conditions: for AR antagonism in words: testing range 10 μmol·l^−1 to 1 nmol·l^−1
T2 construct: expressed in transfected cells
T2 sequence (P10275 1-920): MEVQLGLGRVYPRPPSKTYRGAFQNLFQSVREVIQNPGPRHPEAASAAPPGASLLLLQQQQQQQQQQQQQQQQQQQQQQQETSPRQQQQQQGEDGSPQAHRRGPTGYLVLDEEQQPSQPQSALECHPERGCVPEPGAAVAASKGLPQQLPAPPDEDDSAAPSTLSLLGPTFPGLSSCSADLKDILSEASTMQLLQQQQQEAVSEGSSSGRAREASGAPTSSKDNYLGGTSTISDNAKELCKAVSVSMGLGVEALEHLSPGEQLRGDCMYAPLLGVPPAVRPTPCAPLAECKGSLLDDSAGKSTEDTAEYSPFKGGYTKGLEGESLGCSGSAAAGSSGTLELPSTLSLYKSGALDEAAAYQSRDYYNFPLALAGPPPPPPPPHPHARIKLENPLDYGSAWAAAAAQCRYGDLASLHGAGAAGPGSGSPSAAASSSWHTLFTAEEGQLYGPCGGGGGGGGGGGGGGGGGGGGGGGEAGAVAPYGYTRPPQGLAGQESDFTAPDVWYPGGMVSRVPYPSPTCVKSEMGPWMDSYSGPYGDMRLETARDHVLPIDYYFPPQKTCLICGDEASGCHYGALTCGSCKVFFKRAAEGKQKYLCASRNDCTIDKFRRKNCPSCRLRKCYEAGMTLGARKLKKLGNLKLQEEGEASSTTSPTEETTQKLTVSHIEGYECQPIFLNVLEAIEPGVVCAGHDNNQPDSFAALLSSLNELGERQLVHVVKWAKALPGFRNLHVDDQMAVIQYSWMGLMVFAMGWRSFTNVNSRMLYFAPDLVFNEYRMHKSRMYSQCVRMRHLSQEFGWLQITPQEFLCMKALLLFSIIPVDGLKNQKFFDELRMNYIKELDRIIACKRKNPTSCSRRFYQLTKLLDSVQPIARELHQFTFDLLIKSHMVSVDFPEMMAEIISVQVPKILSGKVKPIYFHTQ

[2] = biological target: T3, progesterone receptor (PR) (Homo sapiens, UniProt P06401); test: PR luciferase reporter assay in U2OS cells; assay type: cell-based; conditions: read-out: ANTAGONIST mode PR IC50
T3 construct: expressed in transfected cells
T3 sequence (P06401 whole entry): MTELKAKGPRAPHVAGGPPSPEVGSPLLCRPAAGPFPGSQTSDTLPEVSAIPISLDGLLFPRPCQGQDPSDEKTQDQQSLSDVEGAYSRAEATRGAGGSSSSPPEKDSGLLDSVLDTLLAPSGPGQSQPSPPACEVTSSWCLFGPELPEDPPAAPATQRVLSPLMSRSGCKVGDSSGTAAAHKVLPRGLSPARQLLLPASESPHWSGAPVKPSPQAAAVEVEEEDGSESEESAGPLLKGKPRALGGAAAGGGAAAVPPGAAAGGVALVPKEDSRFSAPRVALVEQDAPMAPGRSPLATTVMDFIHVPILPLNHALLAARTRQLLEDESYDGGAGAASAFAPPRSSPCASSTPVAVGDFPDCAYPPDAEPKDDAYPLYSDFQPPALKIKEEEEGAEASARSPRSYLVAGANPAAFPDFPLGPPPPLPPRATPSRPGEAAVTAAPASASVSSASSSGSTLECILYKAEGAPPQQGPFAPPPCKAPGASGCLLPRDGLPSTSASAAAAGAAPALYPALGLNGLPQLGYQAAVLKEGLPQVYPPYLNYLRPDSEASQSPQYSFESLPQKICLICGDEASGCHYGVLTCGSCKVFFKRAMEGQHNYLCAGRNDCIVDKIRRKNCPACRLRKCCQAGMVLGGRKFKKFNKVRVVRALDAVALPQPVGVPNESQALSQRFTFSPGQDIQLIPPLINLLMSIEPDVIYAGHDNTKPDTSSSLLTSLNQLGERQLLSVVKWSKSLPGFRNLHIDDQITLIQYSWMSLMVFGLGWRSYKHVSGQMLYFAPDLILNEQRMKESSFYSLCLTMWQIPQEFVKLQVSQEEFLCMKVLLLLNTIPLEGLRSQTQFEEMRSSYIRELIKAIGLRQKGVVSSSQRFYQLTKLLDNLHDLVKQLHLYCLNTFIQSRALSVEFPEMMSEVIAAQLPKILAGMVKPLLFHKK

U2OS cells = test: Cell viability (ATP) of unmodified U2OS cells, parallel to reporter assay; assay type: cell-based, human; conditions: Homo sapiens
Method: To separate the antagonist activity of test compounds from the cytotoxic effect on U2OS cells (cell line derived from osteosarcoma), an experiment for determination of cell viability was performed in parallel with the reporter assay. Original, genetically unmodified U2OS cells were grown under the same conditions as the reporter cells. These cells were further treated and incubated with the compounds in a completely identical manner and for the same time as cells in the reporter assay. At the end of the experiment, the amount of ATP was determined using BriteLite luciferase homogeneous assay as a measure of cell viability. The data were then processed together with data from the reporter assays.

PC3 = test: 7 day proliferation assay, PC3; assay type: cell-based; conditions: 1 μmol·l^−1, 7 days
Method: (§1) In this study, T47D cells were propagated in RPMI 1640 medium supplemented with 10% fetal bovine serum, 2 mmol^·l^−1 glutaMAX (Thermo Fisher Scientific, MA, USA), and penicillin/streptomycin (Thermo Fisher Scientific, Waltham, USA) and incubated in a 5% CO2-humidified atmosphere at 37° C. to the amount needed for the experiment. Two days prior to testing of compounds, growth medium was changed to medium without phenol red, supplemented with 2 mmol^·l^−1 Glutamax and 4% FBS depleted of lipophilic components (including the endogenous estrogenic substances) (Hyclone, GE Healthcare Life Sciences, USA). Two days after the medium replacement, the cells were harvested, counted and resuspended in a medium. Cells were dispensed with liquid dispenser Multidrop (Thermo Fisher Scientific, Waltham, USA), to the cell culture treated, 12-well plates (Corning Inc., NY, USA) at 100 000 cells/well in 1 mL of total media volume. […] After 7 days of cell cultivation with compounds, cells were harvested and counted. […]
(§2) Compounds 9 and 12 were tested in the proliferation assay with cell lines derived from the triple negative breast cancer (MDA-MB-231), AR-negative prostate cancer (PC3, DU145) and ovarian cancer (SK-OV-3, CaoV-3). […] At the end of the treatment, cells were harvested and counted. […]

DU145 = test: 7 day proliferation assay, DU145; assay type: cell-based; conditions: 1 μmol·l^−1, 7 days
Method: as §1, §2

SK-OV-3 = test: 7 day proliferation assay, SK-OV-3; assay type: cell-based; conditions: 1 μmol·l^−1, 7 days
Method: as §1, §2

CaOV-3 = test: 7 day proliferation assay, CaOV-3; assay type: cell-based; conditions: 1 μmol·l^−1, 7 days
Method: as §1, §2

| Structure (SMILES) | Emax [1] [%] | EC50 [1] [µM] | IC50 [1] [µM] | AR antagonism in words (androgen receptor (AR)) | IC50 [2] [µM] | IC50 (U2OS cells) [µM] | % of survived cells compared to untreated samples, PC3 (PC3) [%] | % of survived cells compared to untreated samples, DU145 (DU145) [%] | % of survived cells compared to untreated samples, SK-OV-3 (SK-OV-3) [%] | % of survived cells compared to untreated samples, CaOV-3 (CaOV-3) [%] | ER antagonism in words ([1]; testing range 10 μmol·l^−1 to 1 nmol·l^−1) | IC50 (androgen receptor (AR); antagonist mode, 1 nmol·l^−1 DHT) [µM] |
| --- | --- | --- | --- | --- | --- | --- | --- | --- | --- | --- | --- | --- |
| COc1ccc(CC[C@@H]2CC(=O)[C@@]3(C)CC[C@@H]4c5ccc(O)cc5CC[C@H]4[C@H]23)cc1 [Compound 9, 3-Hydroxy-15β-(4-methoxyphenethyl)-estra-1,3,5 (10)-trien-17-one] | < 40 | > 10 | 23.5 | AR antagonist | 13.6 | > 100 | 96 | 98 | 113 | 94 | – | – |
| CCOc1ccc(CC[C@@H]2CC(=O)[C@@]3(C)CC[C@@H]4c5ccc(O)cc5CC[C@H]4[C@H]23)cc1 [Compound 12, 15β-(4-Ethoxyphenethyl)-3-hydroxy-estra-1,3,5(10)-trien-17-one] | < 40 | > 10 | 29 | antagonists of both types of receptors | 13.7 | > 100 | 98 | 86 | 97 | 88 | antagonists of both types of receptors | 89.1 |
